From patent publication US6720139B1, “Genes identified as required for proliferation in Escherichia coli” (priority 1999, dated 2004)
Values after ≈ are worked out from the molar mass of the structure shown. Where two headings read alike, the source gives them in different places. Positions of bridges follow the written chain, without caps; N, C: chain ends. Non-standard residues stand in square brackets, D forms with d. Residues, ends and D or L forms follow the SMILES beside them. *: point of attachment. Ileψ(thiazoline)Cys = CC[C@H](C)[C@H](N)C1=N[C@H](C(=O)*)CS1; dOrn = NCCC[C@@H](N)C(=O)O

Key:
[1] = test system: E. coli cells expressing antisense RNA to rplL, rplJ, rplW or to comparison genes (elaD, visC, yohH, atpB/E); test: Antibiotic sensitivity of cells expressing antisense RNA (Example 9); format: cell-based; conditions: for sensitivity to erythromycin: initial experiments
From the text: The effectiveness of the above cell based assay was validated using constructs expressing antisense RNA to E. coli genes rplL, rplJ, and rplW encoding ribosomal proteins L7/L12, L10 and L23 respectively. These proteins are part of the protein synthesis apparatus of the cell and as such are required for proliferation. These constructs were used to test the effect of antisense expression on cell sensitivity to antibiotics known to bind to the ribosome and thereby inhibit protein synthesis. Constructs expressing antisense RNA to several other genes (elaD, visC, yohH, and aptE/B), the products of which are not involved in protein synthesis were used for comparison.
First expression vectors containing antisense constructs to either rplW or to elaD were introduced into separate E. coli cell populations. Vector introduction is a technique well known to those of ordinary skill in the art. The expression vectors of this example contain IPTG inducible promoters that drive the expression of the antisense RNA in the presence of the inducer. However, those skilled in the art will appreciate that other inducible promoters may also be used. Suitable expression vectors are also well known in the art. The E. coli antisense clones encoding ribosomal proteins L7/L12, L10 and L23 were used to test the effect of antisense expression on cell sensitivity to the antibiotics known to bind to these proteins. […]
Cells were pretreated with the selected concentration of IPTG and then used to test the sensitivity of cell populations to tetracycline, erythromycin and other protein synthesis inhibitors. […] Cells were grown to log phase and then diluted into media alone or media containing IPTG at concentrations which give 20% and 50% growth inhibition as determined by IPTG dose response curves. […] The 96 well plates were incubated at 37° C. and the OD600 was read by a plate reader every 5 minutes for up to 15 hours. For each IPTG concentration and the no IPTG control, tetracycline dose response curves were determined when the control (absence of tetracycline) reached 0.1 OD600.

[2] = test system: bacterial strain engineered for expression of an antisense against rplL and rplJ (50S ribosomal subunit proteins); test: microbe, parasite or virus in culture; format: cell-based, E. coli
Method: A panel of test antibiotics known to act on different pathways is tested side by side with three to four wells being used to evaluate the effect of a test antibiotic on cell growth at each concentration. Equal volumes of test antibiotic and cells are added to the wells of a 384 well microtiter plate and mixed. Cells are prepared as described above using the media selected for assay development supplemented with the antibiotic required to maintain the antisense construct and are diluted 1:100 in identical media immediately prior to addition to the microtiter plate wells. For a control, cells are also added to several wells that contain the solvent used to dissolve the antibiotics but no antibiotic. Cell growth is monitored continuously by incubation at 37° C. in a microtiter plate reader monitoring the OD600 of the wells over an 18-hour period. […] A plot of percent inhibition against log[antibiotic concentration] allows extrapolation of an IC50 value for each antibiotic.
Two fold dilution series of the panel of test antibiotics used above are generated in each of these media. Several antibiotics are tested side by side with three to four wells being used to evaluate the effects of an antibiotic on cell growth at each concentration, in each media. Equal volumes of test antibiotic and cells are added to the wells of a 384 well microtiter plate and mixed. Cells are prepared as described above using the media selected for use in the assay supplemented with the antibiotic required to maintain the antisense construct. […] Immediately prior to addition to the microtiter plate wells, the cultures are adjusted to an appropriate OD600 (typically 0.002) by dilution into warm (37° C.) sterile media supplemented with identical concentrations of the inducer and antibiotic used to maintain the antisense construct. […] Cell growth is monitored continuously by incubation at 37° C. in a microtiter plate reader monitoring the OD600 of the wells over an 18-hour period. […]

E. coli = test: Inhibition of bacterial proliferation after IPTG induction of antisense clones (Example 1); format: cell-based, Escherichia coli; conditions: 1 mM IPTG, liquid or solid medium
Method: To study the effects of transcriptional induction in liquid medium, growth curves were carried out by back diluting cultures 1:200 into fresh media with or without 1 mM IPTG and measuring the OD450 every 30 minutes (min). To study the effects of transcriptional induction on solid medium, 10^2, 10^3, 10^4, 10^5, 10^6, 10^7 and 10^8 fold dilutions of overnight cultures were prepared. Aliquots of from 0.5 to 3 μl of these dilutions were spotted on selective agar plates with or without 1 mM IPTG. After overnight incubation, the plates were compared to assess the sensitivity of the clones to IPTG.
Of the numerous clones tested, some clones were identified as, a containing sequence that inhibited E. coli growth after IPTG induction. Accordingly, the gene to which the inserted nucleic acid sequence corresponds, or a gene within the operon containing the inserted nucleic acid, may be required for proliferation in E. coli.

Q: For `CCn1cc(C(=O)O)c(=O)c2ccc(C)nc21` [Nalidixic acid], which “sensitivity to antibiotics which do not inhibit protein synthesis” value ([1]; clone expressing antisense to rplL and rplJ) is on record?
A: The value was “does not show increased sensitivity”.

Q: Which IC50 ([2]; read-out: IC50 (+IPTG)) does the source give for `CC[C@H](C)[C@H](N)C1=N[C@H](C(=O)N[C@@H](CC(C)C)C(=O)N[C@H](CCC(=O)O)C(=O)N[C@H](C(=O)N[C@H]2CCCCNC(=O)[C@H](CC(N)=O)NC(=O)[C@@H](CC(=O)O)NC(=O)[C@H](Cc3cnc[nH]3)NC(=O)[C@@H](Cc3ccccc3)NC(=O)[C@H]([C@@H](C)CC)NC(=O)[C@@H](CCCN)NC2=O)[C@@H](C)CC)CS1` [Bacitracin] ({Ileψ(thiazoline)Cys}-L[dE]IK[dOrn]I[dF]H[dD]N; lactam 4-C) here?
A: The IC50 was 4680 µg/mL (≈ 3290 µM).

Q: And the IC50 ([2]; read-out: IC50 (−IPTG))?
A: The IC50 was 4080 µg/mL (≈ 2870 µM).

Q: With `CN(C)c1ccc(O)c2c1C[C@H]1C[C@H]3[C@H](N(C)C)C(O)=C(C(N)=O)C(=O)[C@@]3(O)C(O)=C1C2=O` [Minocycline] as the molecule, how does the IC50 ([2]; read-out: IC50 (+IPTG)) read?
A: Its IC50 is 0.0034 µg/mL (≈ 0.00743 µM).

Q: `CC[C@H]1OC(=O)[C@H](C)[C@@H](O[C@H]2C[C@@](C)(OC)[C@@H](O)[C@H](C)O2)[C@H](C)[C@@H](O[C@@H]2O[C@H](C)C[C@H](N(C)C)[C@H]2O)[C@](C)(O)C[C@@H](C)C(=O)[C@H](C)[C@@H](O)[C@]1(C)O` [Erythromycin] was tested. Which sensitivity to erythromycin ([1]; clones expressing antisense to non-protein synthesis genes elaD, atpB/E and visC) did it give?
A: The sensitivity to erythromycin was “do not”.

Q: What about the sensitivity to erythromycin ([1]; clones expressing antisense to protein synthesis genes (L7/L12 & L10, L7/L12 alone, L22, L18, rRNA, Elongation Factor G)) of the same molecule?
A: The sensitivity to erythromycin was “increased sensitivity”.

B1: EcXA053: identified antisense clone, gene gor (nucleic acid, listed as Escherichia coli)
DNA 1: TGGAGAAAACGGGTGATTGATAAAGCAATCATCGTTCTAGGGGCGTTAATTGCGCTGCTGGAACTGATCCCGCTTTCTGCTTCAAGCTTCTGAACTGGATACGGAAACGTAATNAGGGCTAAAGAAGACACTACTCTTAGCCCTTTAACATTTAACGCATTGTCACGAACTCTTCTGCCGCCGTTGGGTGAATGGCGACGGGTATTGGTCGAAATCTTTTTTGGGTGGCCCCATCTTTAACGCCCACCCGCGAAACCCTGCAACATTTCGTC
DNA 2: TGGAGAAAACGGGTGATTGATAAAGCAATCATCGTTCTAGGGGCGTTAATTGCGCTGCTGGAACTGATCCGCTTTCTGCTTCAGCTTCTGAACTGATAGCGGAAACGTAATTAAGGGCTAAGAGCACACTACTCTTAGCCCTTTAACATTTAACGCATTGTCACGAACTCTTCTGCCGCCGTTGGGTGAATGGCGACGGTATTGTCGAAGTCTTTTTTGGTTGCCCCCATCTTCAGCGCCACCGCGAAGCCCTGCAACATTTCGTC
modifications: E. Coli; misc_feature (1)...(272): n = A,T,C or G
notes: identified antisense clone, gene gor
Q: How did the “E. coli growth after IPTG induction of antisense expression” value (“E. coli growth after IPTG induction” for short) (E. coli) turn out when B1 was run?
A: Its value is “reduction in cell growth”.

B2: EcXA006: identified antisense clone, gene pta (nucleic acid)
DNA: GCGCATACCCTGCAGCATCGGCCCGATGGAGATCAGGTCGGCAGAACGCTGTACCGCTTTGTAGGTGGTGTTACCGGTGNTCAGATCCGGGAAGATGAACACGGTAGCGCGACCTGCAACCGGAGAGTTCGGCGCTTTGGATTNCGCAACGTCAGCCATTACCGCAGCGTCGTACTGCAGCGGACCGGCGATCATCAGGTCA
modifications: E. Coli; misc_feature (1)...(202): n = A,T,C or G
notes: identified antisense clone, gene pta
Q: B2 was tested. Which “E. coli growth after IPTG induction” value (E. coli) did it give?
A: The value was “reduction in cell growth”.

B3: EcXA046: identified clone corresponding to an intergenic sequence, fimE, fimA (nucleic acid)
DNA: TTTGTTGGCTTAATATTCTATTGTTATCTTTATTTATAGATGTTTATATTGCATGAGGTGGTTTTTGGAGAGAAGAATGAGGAAGATGCGTCGAGCCACAGAAACGTTAGCTTTACATATAGCGGAGGTGATGTGAATTTAATTTACAATAGAAATAATTTACATATCAAACAGTTAGATGCTTTTTGTCG
modifications: E. Coli
Q: How did the “E. coli growth after IPTG induction” value (E. coli) turn out when B3 was run?
A: Its value is “reduction in cell growth”.

B4: EcXA044: identified antisense clone, gene purB (nucleic acid)
DNA: TTAATTATTAAAATAGTGTAACGCGATTATGTGGTTATGGGGGTAAACATTAAATAAACCAGCGGGGAGGGGAGGTAAAGTGAAAAAATAAAAAGCGGATAATCTTAATAAGCAGGCCGGACAGCATCGCCATCCGGCACTGATACGAGGTTTATTTCAGCTCATCAACCATCG
modifications: E. Coli
notes: identified antisense clone, gene purB
Q: Which “E. coli growth after IPTG induction” value (E. coli) does the source give for B4 here?
A: The value was “reduction in cell growth”.
